Test results: patent US20240294595A1, “GLYCOPEPTIDES AND USES THEREOF” (Arizona Board of Regents on Behalf of the University of …, priority 2013, published 2024)
“Also recorded” adds a separate entry of the source. Values belong to the compound of their own block, whether it stands above or below them. Where no end group is shown, it is not given here.

How the values were obtained:
[1] = test system: 6-OHDA hemi-parkinsonian rat model; test: mild (25%) 6-OHDA hemi-parkinsonian rat model (study 1); format: in vivo
Source text: The classical mild progressive 6-OHDA hemi-parkinsonian rat model was used to assess the neuroprotective potential of 2LS98Lac (FIGS. 9A,B). Briefly, the rats were given unilateral lesions by treatment with 6-OHDA. Then, the rats were challenged with a dopaminergic receptor agonist (amphetamine in our case) and assessed for their turning behavior (Kelly et al., 1975; Torres and Dunnet, 2007; DaCunha et al., 2008) The observed rotational behavior is likely due to the denervation of dopaminergic neurons and subsequent hypersensitivity of the dopaminergic receptors in the lesioned area of the brain. In the first experiment, mild lesions (25%) were induced (FIG. 9A) to simulate the early stages of PD, and amphetamine was used to induce […] rotations. Rats were treated with either vehicle or 2LS98Lac (15 mg/kg, i.p.) 6 h prior to lesioning and 24 h post-lesion. […] Following behavioral analysis, the number of tyrosine hydroxylase (TH)-positive neurons in the SNpc of both vehicle-treated and 2LS98Lac-treated animals was determined using immunohistochemical staining and unbiased stereology. […] Both behavioral and histological data obtained from these experiments indicate that 2LS98Lac successfully elicited neuroprotection.

[2] = test system: 6-OHDA hemi-parkinsonian rat model; test: moderate (40%) 6-OHDA hemi-parkinsonian rat model (study 2); format: in vivo
Source text: In a follow-up study, the neuroprotective potential of 2LS98Lac was also probed in rats with more severe (40%) 6-OHDA-induced lesions and three treatment-injections with 2LS98Lac (FIG. 9B).
Specifically, 6-OHDA did lead to reduction of % area IBA-1/cell (F3-24=4.463, p=0.0140; FIG. 9K), process length/cell (F3-24=5.925, p=0.0057; FIG. 9L), branches/cell (F3-24=5.845, p=0.0042; FIG. 9M), and endpoints/cell (F3-24=2.943, p=0.0286; FIG. 9N) on the lesioned side. Treatment with 2LS98Lac did lead to an increase of the parameters on the lesioned side back to levels on the intact side. […] Example images for the nigral IHC for TH and for IBA-1, as well as the semi-quantitative western analyses of striatal TH and beta-actin are presented in FIGS. 10A-D.

PAC1 [3] = biological target: T1, PAC1 (Homo sapiens, UniProt P41586); settings: previously reported; cited from earlier work
T1 sequence (P41586 21-468): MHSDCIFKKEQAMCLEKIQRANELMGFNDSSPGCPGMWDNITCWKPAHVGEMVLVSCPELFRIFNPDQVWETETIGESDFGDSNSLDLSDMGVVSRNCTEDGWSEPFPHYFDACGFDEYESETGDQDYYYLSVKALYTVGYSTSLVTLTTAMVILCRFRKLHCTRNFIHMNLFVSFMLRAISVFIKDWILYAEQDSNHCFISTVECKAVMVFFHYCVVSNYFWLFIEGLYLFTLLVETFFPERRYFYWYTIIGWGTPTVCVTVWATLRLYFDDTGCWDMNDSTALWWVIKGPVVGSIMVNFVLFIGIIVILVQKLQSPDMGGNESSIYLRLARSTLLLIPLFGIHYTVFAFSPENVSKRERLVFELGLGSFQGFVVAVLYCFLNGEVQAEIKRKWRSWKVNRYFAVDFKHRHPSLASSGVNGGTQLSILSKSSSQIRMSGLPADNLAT

PAC1 [4] = biological target: T1, PAC1; test: PAC1-CHO calcium flux, FLIPR antagonist mode versus PACAP1-27; format: cell-based; parameters: host or cells: CHO (clonal line PAC1-CHO)
Description: The construct was electroporated into Chinese Hamster Ovary (CHO) cells, and selected for with 500 μg/mL of G418. The resulting population was screened for high expressing clones, and one such clone selected for further analysis. […] This cell line was used for all molecular pharmacology experiments. […] All molecular pharmacology experiments were carried out using a FLIPR Tetra from Molecular Devices (Sunnyvale, CA), set to image calcium flux using the manufacturer's recommended settings and protocols. […] The cells were recovered overnight in growth medium (as above). The next day, the growth medium was replaced with Calcium 6 dye (Molecular Devices) using the manufacturer recommended buffer with 2.5 mM probenecid. […] The resulting calcium flux was recorded, and the maximum-minimum response over the entire observation time calculated and reported as the mean±SEM (4 wells per point). For antagonist mode experiments, a concentration curve (variable concentration mode) or fixed amount (fixed concentration mode) of antagonist was added to the cells, and allowed to equilibrate for 2 minutes. […] The resulting data was analyzed using a Gaddum/Schild EC50 shift model, (Schild, 1957, Gaddum, 1957) designed to analyze competitive antagonism. (Lazareno and Birdsall, 1993) The data output was the pA2 (nM) and the Schild Slope, a measure of how closely the experimental data fits the operational model of competitive antagonism (Prism). For all analyses, each independent experiment performed in quadruplicate is considered to be a sample size of 1. The pharmacology values are calculated separately from each experiment, then combined and reported as the mean±SEM for the entire set of experiments.

[5] = rat, serum
PC12 cells = test: PC12 cell morphology / neurite outgrowth; format: cell-based; settings: 100 nM
Description: PC12 cells are non-adherent cells, and in spite of using the poly-D-Lysine coated plates, the majority of the cells remained suspended. During the media exchange many of the cells were removed with the spent media. The remaining cells could be visually evaluated for qualitative morphological changes at the end of the treatment period, but meaningful cell quantification could not be done reliably using this approach.
FIGS. 5A-5D show PC12 Cell Morphology after Vehicle vs PACAP Treatment (100 nM). […] In all cases the process outgrowths on the treated cells were greater than 2× the cell body width
The PC12 cells were cultured in RPMI containing 5% heat inactivated fetal bovine serum and 10% horse serum in the presence of 100 units/mL penicillin and 100 microgram/mL streptomycin. The cells were plated on poly-D-Lysine coated 6-well tissue culture plates at a density of 150,000 cells per well in 2 mL media. After 48 hours at 37° C. in 5% CO2 atmosphere, media exchange was performed and plates were dosed, using the peptide diluent (water) for the control samples. […] Cell images of each treatment group were captured and compared to the control cells to screen for differentiation and cell body volume increases. Cells having neurite-like process outgrowth were noted and photographed. The neurite-like outgrowth was deemed positive if its length was at least two times the width of the cell body.

[6] = stability in mouse serum at 37° C. (FI-MSn); format: in vitro ADME; settings: mouse serum at 37° C.
Source text: Chemical stability of the glycopeptides in vivo plays an important role in the deliverability of the drugs to the site(s) of action within the brain. It is also important to know what the chemical or metabolic instabilities are in order to inform the drug design process. […] Data were fitted using a single exponential decay model (R^2>0.71, in all cases).
The overall process was as follows: Flow-injection tandem mass spectrometry (FI-MS^n) was used to observe the degradation of the peptides and glycopeptides with a Thermo LCQ with electrospray ionization (ESI). The technique involved injection of a sample bolus of material in mouse serum via a six port valve with fluid flow delivered via a syringe pump, and subsequent electrospray ionization (ESI) followed by mass spectral analysis. Samples were diluted to a concentration of ˜5 μM of each PACAP analogue, and were incubated at 37° C. for times varying from 1 to 60 minutes. After samples had been incubated for the prescribed amount of time they were prepared for mass spectrometry analysis by withdrawing 10 microliters of solution and spiking with 1 microliter of a 10 μM solution of peptide internal standard (angiotensin II) in 50% acetic acid and subjecting them to a standard C18 zip tip desalting. These solutions, once eluted from the zip tip were diluted to 100 μL in 50:50 acetonitrile/water with 0.1% formic acid. Tandem mass spectrometry analysis (MS^3) was conducted to yield specific, quantitative signals proportional to the amount of PACAP analogue at each time point. This technique was also used with microdiasylate samples from a mouse after i.p. administration of PACAP1-27-S-G.

[7] = lesioned side, treatment vs vehicle
[8] = three treatment-injections, vs vehicle
[9] = treatment vs vehicle, listed as 2LS98lac

Compound: 2LS98Lac: PACAP glycopeptide; 2LS98 = HSDGIFTDSYSRYRKQLAVKKYLAAVL-Ser-CONH2 (SEQ ID NO: 7), lactose (HSDGIFTDSYSRYRKQLAVKKYLAAVLS; not fully specified; lactose glycosylation, C-terminal amide) [Compound 2LS98Lac]
cumulative amphetamine-induced contralateral rotations ([1]; 15 mg/kg i.p. 6 h prior and 24 h post-lesion, vs vehicle): significantly decreased; also recorded: reduces 6-OHDA-induced lesion damage
TH-positive neurons in the SNpc, lesioned vs intact side ([1]; 15 mg/kg i.p., mild lesion): neuronal cell death was attenuated
6-OHDA-induced change in microglia morphologic phenotype ([2]; lesioned side): fully reversed
% area IBA-1/cell [2, 7]: significant increase
branches/cell [2, 7]: significant increase
endpoints/cell [2, 7]: trend toward increase
process length/cell [2, 7]: significant increase
6-OHDA-induced change in microglia morphologic phenotype ([2]; lesioned side, listed as 2LS98lac): rescues 6-OHDA induced morphological changes to microglia
nigral TH-cell count on the lesioned side ([2]; moderate lesion): 9,244 cells
mean increase of nigral TH-cell count on the lesioned side vs vehicle group ([2]; not significant (p=0.2208)): 850 cells
amphetamine-induced rotations at 2 weeks post-lesion [2, 8]: did not see a difference; also recorded: does not reduce 6-OHDA-induced lesion damage
amphetamine-induced rotations at 4 weeks post-lesion [2, 8]: did not see a difference; also recorded: does not reduce 6-OHDA-induced lesion damage
striatal DA content ([2]; treatment vs vehicle): no significant difference
striatal TH (western analysis) ([2]; treatment vs vehicle): no significant difference
striatal DA content [2, 9]: did not change
striatal TH (western analysis) [2, 9]: did not change

Compound: CC[C@H](C)[C@H](NC(=O)CNC(=O)[C@H](CC(=O)O)NC(=O)[C@H](CO)NC(=O)[C@@H](N)Cc1c[nH]cn1)C(=O)N[C@@H](Cc1ccccc1)C(=O)N[C@H](C(=O)N[C@@H](CC(=O)O)C(=O)N[C@@H](CO)C(=O)N[C@@H](Cc1ccc(O)cc1)C(=O)N[C@@H](CO)C(=O)N[C@@H](CCCNC(=N)N)C(=O)N[C@@H](Cc1ccc(O)cc1)C(=O)N[C@@H](CCCNC(=N)N)C(=O)N[C@@H](CCCCN)C(=O)N[C@@H](CCC(N)=O)C(=O)N[C@@H](CC(C)C)C(=O)N[C@@H](C)C(=O)N[C@H](C(=O)N[C@@H](CCCCN)C(=O)N[C@@H](CCCCN)C(=O)N[C@@H](Cc1ccc(O)cc1)C(=O)N[C@@H](CC(C)C)C(=O)N[C@@H](C)C(=O)N[C@@H](C)C(=O)N[C@H](C(=O)N[C@@H](CC(C)C)C(=O)N[C@@H](CO[C@@H]1O[C@H](CO)[C@@H](O[C@@H]2O[C@H](CO)[C@H](O)[C@H](O)[C@H]2O)[C@H](O)[C@H]1O)C(N)=O)C(C)C)C(C)C)[C@@H](C)O [Compound 2LS80Lac]
half-life [5]: > 1 h

Compound: PACAP1-27-S-L: the corresponding lactoside of PACAP1-27 (HSDGIFTDSYSRYRKQMAVKKYLAAVLS; not fully specified)
cell body volumes (PC12 cells): showed increases
degradation in mouse serum [6]: degraded over 30 min

Continued, in another order:

antagonist activity, variable concentration mode (PAC1 [4]; versus 5 nM PACAP1-27, concentration up to 1 μM): no significant antagonist activity
Compound: PACAP6-27: truncated putative antagonist (FTDSYSRYRKQMAVKKYLAAVL; ends and bridges not checked)
Ki (PAC1 [3]): 60 nM
shift of PACAP1-27 agonist curves, fixed concentration mode (PAC1 [4]; fixed antagonist concentrations up to 1 μM): no detectable shifts in the agonist curves; also recorded: caused no shift in the agonist curves

Kb (PAC1 [4]; Gaddum/Schild EC50 shift model, read-out: pA2 (converted)): 201 ± 55.4 nM
IC50 (PAC1 [4]; read-out: antagonism potency (IC50), variable concentration mode): > 333 nM
Compound: CSCC[C@H](NC(=O)[C@H](CCC(N)=O)NC(=O)[C@H](CCCCN)NC(=O)[C@H](CCCNC(=N)N)NC(=O)[C@H](Cc1ccc(O)cc1)NC(=O)[C@H](CCCNC(=N)N)NC(=O)[C@H](CO)NC(=O)[C@H](Cc1ccc(O)cc1)NC(=O)[C@H](CO)NC(=O)[C@H](CC(=O)O)NC(=O)[C@@H](NC(=O)[C@@H](N)Cc1ccccc1)[C@@H](C)O)C(=O)N[C@@H](C)C(=O)N[C@H](C(=O)N[C@@H](CCCCN)C(=O)N[C@@H](CCCCN)C(=O)N[C@@H](Cc1ccc(O)cc1)C(=O)N[C@@H](CC(C)C)C(=O)N[C@@H](C)C(=O)N[C@@H](C)C(=O)N[C@H](C(=O)N[C@@H](CC(C)C)C(=O)NCC(=O)N[C@@H](CCCCN)C(=O)N[C@@H](CCCNC(=N)N)C(=O)N[C@@H](Cc1ccc(O)cc1)C(=O)N[C@@H](CCCCN)C(=O)N[C@@H](CCC(N)=O)C(=O)N[C@@H](CCCNC(=N)N)C(=O)N[C@H](C(=O)N[C@@H](CCCCN)C(=O)N[C@@H](CC(N)=O)C(=O)N[C@@H](CCCCN)C(N)=O)C(C)C)C(C)C)C(C)C [PACAP6-38]
Ki (PAC1 [3]): 1.5 nM
